{"source": "patent US12522594B2", "about": "“2-heteroaryl-3-oxo-2,3-dihydropyridazine-4-carboxamides for the treatment of cancer” (Deutsches Krebsforschungszentrum, priority 2017, dated 2026)", "key": {"AHR [1]": {"target": "T1, AHR (Homo sapiens, UniProt P35869)", "T1 sequence (P35869 11-848)": "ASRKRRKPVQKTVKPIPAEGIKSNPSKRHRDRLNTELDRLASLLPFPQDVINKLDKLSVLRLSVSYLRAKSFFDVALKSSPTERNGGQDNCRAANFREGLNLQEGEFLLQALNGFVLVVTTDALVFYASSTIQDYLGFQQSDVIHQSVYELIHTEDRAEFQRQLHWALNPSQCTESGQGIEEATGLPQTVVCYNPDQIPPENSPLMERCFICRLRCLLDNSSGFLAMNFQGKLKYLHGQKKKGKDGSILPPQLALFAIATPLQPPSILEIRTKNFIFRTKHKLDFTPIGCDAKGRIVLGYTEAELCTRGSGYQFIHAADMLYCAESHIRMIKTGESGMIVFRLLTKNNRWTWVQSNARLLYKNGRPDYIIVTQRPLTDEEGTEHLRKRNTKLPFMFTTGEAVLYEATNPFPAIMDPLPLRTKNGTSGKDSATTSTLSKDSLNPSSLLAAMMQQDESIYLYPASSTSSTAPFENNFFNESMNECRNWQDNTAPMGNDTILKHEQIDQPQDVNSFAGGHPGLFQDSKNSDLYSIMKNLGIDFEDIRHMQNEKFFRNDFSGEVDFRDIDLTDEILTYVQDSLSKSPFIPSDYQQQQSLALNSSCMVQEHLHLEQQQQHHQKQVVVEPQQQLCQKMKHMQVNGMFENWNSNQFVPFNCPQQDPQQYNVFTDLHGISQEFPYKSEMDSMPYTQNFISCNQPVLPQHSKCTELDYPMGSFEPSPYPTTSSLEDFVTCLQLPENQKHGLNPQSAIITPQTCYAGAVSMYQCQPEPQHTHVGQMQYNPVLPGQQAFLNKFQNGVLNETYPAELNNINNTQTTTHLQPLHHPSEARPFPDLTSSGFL", "experiment": "In vitro assay 2: agonism in human cell line (transactivation assay, U87 cells, DRE firefly luciferase reporter)", "type": "cell-based", "design": "host or cells: U87 glioblastoma cells, stably transfected with DRE firefly luciferase and renilla reporter constructs", "conditions": "no kynurenic acid, 20 hours, read-out: Assay 2: AHR-luc Hum Agonism IC50", "how_it_was_run": "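Agonist readout: DRE firefly luciferase, with constitutive renilla reporter, in stably transfected U87 cells expressing AHR endogenously. Normalization used positive control (300 uM kynurenic acid) and negative control.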"}, "AHR [2]": {"target": "T1, AHR", "experiment": "In vitro assay 1: antagonism in human cell line (transactivation assay, U87 cells prestimulated with kynurenic acid, DRE firefly luciferase reporter)", "type": "cell-based", "design": "host or cells: U87 glioblastoma cells, stably transfected with DRE firefly luciferase and renilla reporter constructs", "conditions": "150 uM kynurenic acid, 20 hours, read-out: Assay 1: AHR-luc Hum Antagonism IC50", "how_it_was_run": "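Antagonism measured after kynurenic acid prestimulation in U87 cells that express AHR endogenously and stably harbor a firefly luciferase gene under DRE control plus a constitutive renilla construct. Positive and negative controls served for normalization.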"}}}
{"compound": "Cn1cc(-n2nc(-c3ccc(C(F)(F)F)cc3)cc(C(=O)NC[C@H](O)CF)c2=O)cn1", "note": "[Example 245, N-[(2S)-3-Fluoro-2-hydroxypropyl]-2-(1-methyl-1H-pyrazol-4-yl)-3-oxo-6-[4-(trifluoromethyl)phenyl]-2,3-dihydropyridazine-4-carboxamide]", "values": [{"measurement": "IC50", "setting": "AHR [1]", "value": "> 20000", "unit": "nM"}, {"measurement": "IC50", "setting": "AHR [2]", "value": 12.8, "unit": "nM"}]}
{"compound": "C[C@@H](CO)NC(=O)c1cc(-c2ccc(Cl)cc2F)nn(-c2cccnc2)c1=O", "note": "[Example 163, 6-(4-Chloro-2-fluorophenyl)-N-[(2S)-1-hydroxypropan-2-yl]-3-oxo-2-(pyridin-3-yl)-2,3-dihydropyridazine-4-carboxamide]", "values": [{"measurement": "IC50", "setting": "AHR [1]", "value": "> 20000", "unit": "nM"}, {"measurement": "IC50", "setting": "AHR [2]", "value": 134, "unit": "nM"}]}
{"compound": "C[C@H](NC(=O)c1cc(-c2ccc(Cl)cc2)nn(-c2cnn(C)c2)c1=O)C(C)(C)O", "note": "[Example 316, 6-(4-Chlorophenyl)-N-[(2S)-3-hydroxy-3-methylbutan-2-yl]-2-(1-methyl-1H-pyrazol-4-yl)-3-oxo-2,3-dihydropyridazine-4-carboxamide]", "values": [{"measurement": "IC50", "setting": "AHR [1]", "value": "> 20000", "unit": "nM"}, {"measurement": "IC50", "setting": "AHR [2]", "value": 20.6, "unit": "nM"}]}
{"compound": "O=C(N[C@@H]1COC[C@@H]1O)c1cc(-c2ccc(C(F)F)cc2)nn(-c2cccnc2)c1=O", "note": "(single isomer, unassigned) [Example 318, 6-[4-(Difluoromethyl)phenyl]-N-[(cis)-4-hydroxy-tetrahydrofuran-3-yl]-3-oxo-2-(pyridin-3-yl)-2,3-dihydropyridazine-4-carboxamide]", "values": [{"measurement": "IC50", "setting": "AHR [1]", "value": "> 20000", "unit": "nM"}, {"measurement": "IC50", "setting": "AHR [2]", "value": 32, "unit": "nM"}]}
{"compound": "O=C(N[C@H]1CCC[C@@H]1O)c1cc(-c2ccc(C(F)F)nc2)nn(-c2cccnc2)c1=O", "note": "[Example 165, 6-[6-(Difluoromethyl)pyridin-3-yl]-N-[(1S,2S)-2-hydroxycyclopentyl]-3-oxo-2-(pyridin-3-yl)-2,3-dihydropyridazine-4-carboxamide]", "values": [{"measurement": "IC50", "setting": "AHR [1]", "value": "> 20000", "unit": "nM"}, {"measurement": "IC50", "setting": "AHR [2]", "value": 209, "unit": "nM"}]}
{"compound": "O=C(NC(CO)CO)c1cc(-c2ccc(Cl)cc2)nn(-c2cccnc2)c1=O", "note": "[Example 70, 6-(4-Chlorophenyl)-N-(1,3-dihydroxypropan-2-yl)-3-oxo-2-(pyridin-3-yl)-2,3-dihydropyridazine-4-carboxamide]", "values": [{"measurement": "IC50", "setting": "AHR [1]", "value": "> 20000", "unit": "nM"}, {"measurement": "IC50", "setting": "AHR [2]", "value": 159, "unit": "nM"}]}
{"compound": "CC(C)[C@@H](CO)NC(=O)c1cc(-c2ccc(C(F)(F)F)nc2)nn(-c2cncc(F)c2)c1=O", "note": "[Example 337, 2-(5-Fluoropyridin-3-yl)-N-[(2S)-1-hydroxy-3-methylbutan-2-yl]-3-oxo-6-[6-(trifluoromethyl)pyridin-3-yl]-2,3-dihydropyridazine-4-carboxamide]", "values": [{"measurement": "IC50", "setting": "AHR [1]", "value": "> 20000", "unit": "nM"}, {"measurement": "IC50", "setting": "AHR [2]", "value": 20.8, "unit": "nM"}]}
{"compound": "CC(C)(O)C(NC(=O)c1cc(-c2ccc(OC(F)(F)F)cc2)nn(-c2cccnc2)c1=O)C(F)(F)F", "note": "(single isomer, unassigned; enantiomer 1) [Example 136, 3-Oxo-2-(pyridin-3-yl)-N-[1,1,1-trifluoro-3-hydroxy-3-methylbutan-2-yl]-6-[4-(trifluoromethoxy)phenyl]-2,3-dihydropyridazine-4-carboxamide, Enantiomer 1]", "values": [{"measurement": "IC50", "setting": "AHR [1]", "value": "> 20000", "unit": "nM"}, {"measurement": "IC50", "setting": "AHR [2]", "value": 60.4, "unit": "nM"}]}
{"compound": "C[C@@H](NC(=O)c1cc(-c2ccc(Cl)cc2)nn(-c2cncnc2)c1=O)C(C)(C)O", "note": "[Example 265, 6-(4-Chlorophenyl)-N-[(2R)-3-hydroxy-3-methylbutan-2-yl]-3-oxo-2-(pyrimidin-5-yl)-2,3-dihydropyridazine-4-carboxamide]", "values": [{"measurement": "IC50", "setting": "AHR [1]", "value": "> 20000", "unit": "nM"}, {"measurement": "IC50", "setting": "AHR [2]", "value": 48.8, "unit": "nM"}]}
{"compound": "CC(NC(=O)c1cc(-c2ccc(Cl)cc2)nn(-c2cccnc2)c1=O)C(O)C(F)(F)F", "note": "(single isomer, unassigned) [Example 299, 6-(4-Chlorophenyl)-3-oxo-2-(pyridin-3-yl)-N-(4,4,4-trifluoro-3-hydroxybutan-2-yl)-2,3-dihydropyridazine-4-carboxamide]", "values": [{"measurement": "IC50", "setting": "AHR [1]", "value": "> 20000", "unit": "nM"}, {"measurement": "IC50", "setting": "AHR [2]", "value": 13.3, "unit": "nM"}]}
{"compound": "O=C(N[C@H]1COCC[C@H]1O)c1cc(-c2ccc(C(F)(F)F)nc2)nn(-c2cncc(F)c2)c1=O", "note": "[Example 343, 1,5-Anhydro-2,4-dideoxy-2-[({2-(5-fluoropyridin-3-yl)-3-oxo-6-[6-(trifluoromethyl)pyridin-3-yl]-2,3-dihydropyridazine-4-yl}carbonyl)amino]-D-erythro-pentitol]", "values": [{"measurement": "IC50", "setting": "AHR [1]", "value": "> 20000", "unit": "nM"}, {"measurement": "IC50", "setting": "AHR [2]", "value": 171, "unit": "nM"}]}
{"compound": "CC(C)(O)CNC(=O)c1cc(-c2ccc(Cl)cc2)nn(-c2cnn(C(F)F)c2)c1=O", "note": "[Example 278, 6-(4-Chlorophenyl)-2-[1-(difluoromethyl)-1H-pyrazol-4-yl]-N-(2-hydroxy-2-methylpropyl)-3-oxo-2,3-dihydropyridazine-4-carboxamide]", "values": [{"measurement": "IC50", "setting": "AHR [1]", "value": "> 20000", "unit": "nM"}, {"measurement": "IC50", "setting": "AHR [2]", "value": 140, "unit": "nM"}]}
{"compound": "O=C(NC(CO)CO)c1cc(-c2ccc(C(F)(F)F)cc2)nn(-c2cccnc2)c1=O", "note": "[Example 116, N-(1,3-Dihydroxypropan-2-yl)-3-oxo-2-(pyridin-3-yl)-6-[4-(trifluoromethyl)phenyl]-2,3-dihydropyridazine-4-carboxamide]", "values": [{"measurement": "IC50", "setting": "AHR [1]", "value": "> 20000", "unit": "nM"}, {"measurement": "IC50", "setting": "AHR [2]", "value": 115, "unit": "nM"}]}
{"compound": "Cc1cc(-n2nc(-c3ccc(Cl)cc3)cc(C(=O)NC[C@H](O)C(F)(F)F)c2=O)cs1", "note": "[Example 225, 6-(4-Chlorophenyl)-2-(5-methyl-3-thienyl)-3-oxo-N-[(2S)-3,3,3-trifluoro-2-hydroxypropyl]-2,3-dihydropyridazine-4-carboxamide]", "values": [{"measurement": "IC50", "setting": "AHR [1]", "value": "> 20000", "unit": "nM"}, {"measurement": "IC50", "setting": "AHR [2]", "value": 5.04, "unit": "nM"}]}
{"compound": "C[C@H](NC(=O)c1cc(-c2ccc(C(F)(F)F)cc2)nn(-c2cnsc2)c1=O)C(C)(C)O", "note": "[Example 196, N-[(2S)-3-Hydroxy-3-methylbutan-2-yl]-3-oxo-2-(1,2-thiazol-4-yl)-6-[4-(trifluoromethyl)phenyl]-2,3-dihydropyridazine-4-carboxamide]", "values": [{"measurement": "IC50", "setting": "AHR [1]", "value": "> 20000", "unit": "nM"}, {"measurement": "IC50", "setting": "AHR [2]", "value": 0.418, "unit": "nM"}]}
{"compound": "O=C(N[C@H]1CCC[C@H]1O)c1cc(-c2ccc(C(F)(F)F)nc2)nn(-c2cncc(F)c2)c1=O", "note": "[Example 338, 2-(5-Fluoropyridin-3-yl)-N-[(1S,2R)-2-hydroxycyclopentyl]-3-oxo-6-[6-(trifluoromethyl)pyridin-3-yl]-2,3-dihydropyridazine-4-carboxamide]", "values": [{"measurement": "IC50", "setting": "AHR [1]", "value": "> 20000", "unit": "nM"}, {"measurement": "IC50", "setting": "AHR [2]", "value": 24.1, "unit": "nM"}]}
{"compound": "CC(C)(O)C(NC(=O)c1cc(-c2ccc(OC(F)(F)F)cc2)nn(-c2cccnc2)c1=O)C(F)(F)F", "note": "(single isomer, unassigned; enantiomer 2) [Example 137, 3-Oxo-2-(pyridin-3-yl)-N-[1,1,1-trifluoro-3-hydroxy-3-methylbutan-2-yl]-6-[4-(trifluoromethoxy)phenyl]-2,3-dihydropyridazine-4-carboxamide, Enantiomer 2]", "values": [{"measurement": "IC50", "setting": "AHR [1]", "value": "> 20000", "unit": "nM"}, {"measurement": "IC50", "setting": "AHR [2]", "value": 4.23, "unit": "nM"}]}
{"compound": "O=C(NC[C@H](O)C(F)(F)F)c1cc(-c2ccc(Cl)cc2)nn(-c2ccnnc2)c1=O", "note": "[Example 321, 3-(4-Chlorophenyl)-6-oxo-N-[(2S)-3,3,3-trifluoro-2-hydroxypropyl]-6H-1,4′-bipyridazine-5-carboxamide]", "values": [{"measurement": "IC50", "setting": "AHR [1]", "value": "> 20000", "unit": "nM"}, {"measurement": "IC50", "setting": "AHR [2]", "value": 50.6, "unit": "nM"}]}
{"compound": "C[C@@H](CO)NC(=O)c1cc(-c2ccc(Cl)cc2)nn(-c2cncc(Cl)c2)c1=O", "note": "[Example 303, 6-(4-Chlorophenyl)-2-(5-chloropyridin-3-yl)-N-[(2S)-1-hydroxypropan-2-yl]-3-oxo-2,3-dihydropyridazine-4-carboxamide]", "values": [{"measurement": "IC50", "setting": "AHR [1]", "value": "> 20000", "unit": "nM"}, {"measurement": "IC50", "setting": "AHR [2]", "value": 133, "unit": "nM"}]}
{"compound": "O=C(N[C@H]1COC[C@@H]1O)c1cc(-c2ccc(OC(F)(F)F)cc2)nn(-c2cccnc2)c1=O", "note": "(single isomer, unassigned; enantiomer 1) [Example 161, N-[(trans)-4-Hydroxytetrahydrofuran-3-yl]-3-oxo-2-(pyridin-3-yl)-6-[4-(trifluoromethoxy)phenyl]-2,3-dihydropyridazine-4-carboxamide, Enantiomer 1]", "values": [{"measurement": "IC50", "setting": "AHR [1]", "value": "> 20000", "unit": "nM"}, {"measurement": "IC50", "setting": "AHR [2]", "value": 103, "unit": "nM"}]}
